According to PubChem BioAssay AID504571 (Southern Research Specialized Biocontainment Screening …, 2011):

System: human PBMC cytotoxicity, percent of cell control
Experiment: PBMC viability reduction by compounds – cell-based, PBMC assay companion, set 2, cytotoxicity control for HIV-1 antiviral lead project, dose response (AID 504571)

Structure (SMILES)	CC50
Cc1c2c(=O)n(-c3nc4ccccc4s3)nc-2cc(O)n1CCC(C)C	45 µM
Cc1c2c(=O)n(-c3nc4ccccc4s3)nc-2cc(O)n1Cc1ccncc1	2.64 µM
Cc1c2c(=O)n(-c3nc4ccccc4s3)nc-2cc(O)n1Cc1ccccc1Cl	35.6 µM
Cc1c2c(=O)n(-c3nc4ccccc4s3)nc-2cc(O)n1Cc1cccnc1	2.24 µM
Cc1c2c(=O)n(-c3nc4ccccc4s3)nc-2cc(O)n1Cc1cccs1	14.2 µM
Cc1c2c(=O)n(-c3nc4ccccc4s3)nc-2cc(O)n1CCc1cccs1	40.8 µM
Cc1c2c(=O)n(-c3nc4ccccc4s3)nc-2cc(O)n1Cc1ccc(F)cc1	19.1 µM
Cc1c2c(=O)n(-c3nc4ccccc4s3)nc-2cc(O)n1CCc1ccc(O)cc1	2.55 µM
Cc1c2c(=O)n(-c3nc4ccccc4s3)nc-2cc(O)n1C1CC1	5.72 µM
COc1ccc(CCn2c(O)cc3nn(-c4nc5ccccc5s4)c(=O)c-3c2C)cc1	49.8 µM
Cc1c2c(=O)n(-c3nc4ccccc4s3)nc-2cc(O)n1Cc1ccccc1	21 µM
COc1ccc(Cn2c(O)cc3nn(-c4nc5ccccc5s4)c(=O)c-3c2C)cc1	19.1 µM
COc1ccccc1Cn1c(O)cc2nn(-c3nc4ccccc4s3)c(=O)c-2c1C	29.6 µM
